From ChEMBL document CHEMBL4699440, “Comprehensive review on the anti-bacterial activity of 1,2,3-triazole hybrids” (Eur J Med Chem, 2019)
≈ marks a conversion by molar mass, not a printed value. Values belong to the compound of their own block, whether it stands above or below them.

Experiments:
Pseudomonas aeruginosa [1] = assay: Antibacterial activity against Pseudomonas aeruginosa 12 incubated for 20 hrs by agar dilution method; assay type: functional
Escherichia coli [2] = assay: Antibacterial activity against Escherichia coli NIHJ JC2 incubated for 20 hrs by agar dilution method; assay type: functional
Staphylococcus aureus [3] = assay: Antibacterial activity against Staphylococcus aureus 209P JC1 incubated for 20 hrs by agar dilution method; assay type: functional
Streptococcus pneumoniae = assay: Antibacterial activity against Streptococcus pneumoniae RCMB 010010 by broth dilution method; assay type: functional
Escherichia coli [4] = assay: Antibacterial activity against Escherichia coli RCMB 010052 by broth dilution method; assay type: functional
Pseudomonas aeruginosa [5] = assay: Antibacterial activity against Pseudomonas aeruginosa RCMB 010043 by broth dilution method; assay type: functional
Klebsiella pneumoniae [6] = assay: Antibacterial activity against Klebsiella pneumonia RCMB 010058 by broth dilution method; assay type: functional
Staphylococcus aureus [7] = assay: Antibacterial activity against Staphylococcus aureus RCMB 010025 by broth dilution method; assay type: functional
Bacillus subtilis = assay: Antibacterial activity against Bacillus subtilis RCMB 010067 by broth dilution method; assay type: functional
[8] = test system: Sphingomonas paucimobilis; assay: Antibacterial activity against Flavobacterium devorans ATCC 10829 incubated for 24 hrs; assay type: functional
Bacillus cereus = assay: Antibacterial activity against Bacillus cereus ATCC 6630 incubated for 24 hrs; assay type: functional
Penicillium chrysogenum = assay: Antifungal activity against Penicillium chrysogenum NCIM 723 incubated for 48 hrs; assay type: functional
Aspergillus niger = assay: Antifungal activity against Aspergillus niger NCIM 1196 incubated for 48 hrs; assay type: functional
Curvularia lunata = assay: Antifungal activity against Curvularia lunata NCIM 1131 incubated for 48 hrs; assay type: functional
Pseudomonas fluorescens = assay: Antibacterial activity against Pseudomonas fluorescens NCIM 2173 incubated for 24 hrs; assay type: functional
Escherichia coli [9] = assay: Antibacterial activity against Escherichia coli NCIM 2256 incubated for 24 hrs; assay type: functional
Micrococcus luteus = assay: Antibacterial activity against Micrococcus Luteus ATCC 398 incubated for 24 hrs; assay type: functional
Staphylococcus aureus [10] = assay: Antibacterial activity against Staphylococcus aureus ATCC 29737 incubated for 24 hrs; assay type: functional
Pseudomonas aeruginosa [11] = assay: Antibacterial activity against Pseudomonas aeruginosa ATCC 12454 incubated for 24 hrs by tube dilution method; assay type: functional
Staphylococcus aureus [12] = assay: Antibacterial activity against Staphylococcus aureus ATCC 25923 incubated for 24 hrs by tube dilution method; assay type: functional
Escherichia coli [13] = assay: Antibacterial activity against Escherichia coli ATCC 25922 incubated for 24 hrs by tube dilution method; assay type: functional
Klebsiella pneumoniae [14] = assay: Antibacterial activity against Klebsiella pneumoniae ATCC 15380 incubated for 24 hrs by tube dilution method; assay type: functional
Streptococcus pyogenes = assay: Antibacterial activity against Streptococcus pyogenes ATCC 35552 incubated for 24 hrs by tube dilution method; assay type: functional
Klebsiella pneumoniae [15] = assay: Antibacterial activity against Klebsiella pneumoniae ATCC 700603 incubated overnight by broth dilution technique; assay type: functional, organism-based
Pseudomonas aeruginosa [16] = assay: Antibacterial activity against Pseudomonas aeruginosa MTCC 2453 incubated overnight by broth dilution technique; assay type: functional, organism-based
Enterococcus faecalis = assay: Antibacterial activity against Enterococcus faecalis MTCC 439 incubated overnight by broth dilution technique; assay type: functional, organism-based
Salmonella enterica = assay: Antibacterial activity against Salmonella enterica MTCC 3224 incubated overnight by broth dilution technique; assay type: functional, organism-based
Escherichia coli [17] = assay: Antibacterial activity against Escherichia coli ATCC 25922 incubated overnight by broth dilution technique; assay type: functional, organism-based

MIC (Pseudomonas aeruginosa [1]): 0.05 µg/mL (≈ 0.129 µM) | MIC (Escherichia coli [2]): 0.05 µg/mL (≈ 0.129 µM) | MIC (Staphylococcus aureus [3]): 0.05 µg/mL (≈ 0.129 µM)
SMILES: NCC1CCN(c2c(F)c3c(c(=O)c(C(=O)O)cn3C3CC3)c3[nH]nnc23)C1 (centres undefined)

MIC (Streptococcus pneumoniae): 31.2 µg/mL (≈ 44.9 µM) | MIC (Escherichia coli [4]): 31.2 µg/mL (≈ 44.9 µM) | MIC (Pseudomonas aeruginosa [5]): 31.2 µg/mL (≈ 44.9 µM) | MIC (Klebsiella pneumoniae [6]): 31.2 µg/mL (≈ 44.9 µM) | MIC (Staphylococcus aureus [7]): 31.2 µg/mL (≈ 44.9 µM) | MIC (Bacillus subtilis): 31.2 µg/mL (≈ 44.9 µM)
SMILES: CC(=O)OCC(CSc1nnc(-c2nnn(-c3ccccc3Cl)c2-c2nnc(SCC(COC(C)=O)OC(C)=O)o2)o1)OC(C)=O (centres undefined)

MIC (Streptococcus pneumoniae): 31.2 µg/mL (≈ 53.9 µM) | MIC (Escherichia coli [4]): 31.2 µg/mL (≈ 53.9 µM) | MIC (Pseudomonas aeruginosa [5]): 31.2 µg/mL (≈ 53.9 µM) | MIC (Klebsiella pneumoniae [6]): 31.2 µg/mL (≈ 53.9 µM) | MIC (Staphylococcus aureus [7]): 31.2 µg/mL (≈ 53.9 µM) | MIC (Bacillus subtilis): 31.2 µg/mL (≈ 53.9 µM)
SMILES: CC(=O)OCCCSc1nnc(-c2nnn(-c3ccccc3Cl)c2-c2nnc(SCCCOC(C)=O)o2)o1

MIC [8]: 2 µg/mL (≈ 5.44 µM) | MIC (Bacillus cereus): 2 µg/mL (≈ 5.44 µM) | MIC (Penicillium chrysogenum): 2 µg/mL (≈ 5.44 µM) | MIC (Aspergillus niger): 2 µg/mL (≈ 5.44 µM) | MIC (Curvularia lunata): 2 µg/mL (≈ 5.44 µM) | MIC (Pseudomonas fluorescens): 2 µg/mL (≈ 5.44 µM) | MIC (Escherichia coli [9]): 2 µg/mL (≈ 5.44 µM) | MIC (Micrococcus luteus): 2 µg/mL (≈ 5.44 µM) | MIC (Staphylococcus aureus [10]): 2 µg/mL (≈ 5.44 µM)
SMILES: O=c1cc(OCc2cn(Cc3cccc(Cl)c3)nn2)c2ccccc2o1

MIC [8]: 2 µg/mL (≈ 5.1 µM) | MIC (Bacillus cereus): 2 µg/mL (≈ 5.1 µM) | MIC (Penicillium chrysogenum): 2 µg/mL (≈ 5.1 µM) | MIC (Aspergillus niger): 2 µg/mL (≈ 5.1 µM) | MIC (Curvularia lunata): 2 µg/mL (≈ 5.1 µM) | MIC (Pseudomonas fluorescens): 2 µg/mL (≈ 5.1 µM) | MIC (Escherichia coli [9]): 2 µg/mL (≈ 5.1 µM) | MIC (Micrococcus luteus): 2 µg/mL (≈ 5.1 µM) | MIC (Staphylococcus aureus [10]): 2 µg/mL (≈ 5.1 µM)
SMILES: Cc1cc(OCc2cn(Cc3ccc([N+](=O)[O-])cc3)nn2)cc2oc(=O)ccc12

MIC (Streptococcus pneumoniae): 4 µg/mL (≈ 8.55 µM) | MIC (Escherichia coli [4]): 4 µg/mL (≈ 8.55 µM) | MIC (Pseudomonas aeruginosa [5]): 4 µg/mL (≈ 8.55 µM) | MIC (Klebsiella pneumoniae [6]): 4 µg/mL (≈ 8.55 µM) | MIC (Staphylococcus aureus [7]): 4 µg/mL (≈ 8.55 µM) | MIC (Bacillus subtilis): 4 µg/mL (≈ 8.55 µM)
SMILES: OCCSc1nnc(-c2nnn(-c3ccccc3Cl)c2-c2nnc(SCCO)o2)o1

MIC (Pseudomonas aeruginosa [11]): 5.5 µg/mL (≈ 11.7 µM) | MIC (Staphylococcus aureus [12]): 5.5 µg/mL (≈ 11.7 µM) | MIC (Escherichia coli [13]): 5.5 µg/mL (≈ 11.7 µM) | MIC (Klebsiella pneumoniae [14]): 5.5 µg/mL (≈ 11.7 µM) | MIC (Streptococcus pyogenes): 5.5 µg/mL (≈ 11.7 µM)
SMILES: O=Cc1cn(-c2ccccc2)nc1-c1cc(Cl)ccc1OCc1cn(Cc2ccccc2)nn1

MIC [8]: 2 µg/mL (≈ 5.76 µM) | MIC (Bacillus cereus): 2 µg/mL (≈ 5.76 µM) | MIC (Penicillium chrysogenum): 2 µg/mL (≈ 5.76 µM) | MIC (Aspergillus niger): 2 µg/mL (≈ 5.76 µM) | MIC (Curvularia lunata): 2 µg/mL (≈ 5.76 µM) | MIC (Pseudomonas fluorescens): 2 µg/mL (≈ 5.76 µM) | MIC (Escherichia coli [9]): 2 µg/mL (≈ 5.76 µM) | MIC (Micrococcus luteus): 2 µg/mL (≈ 5.76 µM) | MIC (Staphylococcus aureus [10]): 2 µg/mL (≈ 5.76 µM)
SMILES: Cc1cc(OCc2cn(Cc3ccccc3)nn2)cc2oc(=O)ccc12

MIC (Pseudomonas aeruginosa [11]): 5.5 µg/mL (≈ 11.4 µM) | MIC (Staphylococcus aureus [12]): 5.5 µg/mL (≈ 11.4 µM) | MIC (Escherichia coli [13]): 5.5 µg/mL (≈ 11.4 µM) | MIC (Klebsiella pneumoniae [14]): 5.5 µg/mL (≈ 11.4 µM) | MIC (Streptococcus pyogenes): 5.5 µg/mL (≈ 11.4 µM)
SMILES: Cc1ccc(OCc2cn(Cc3cccc(Cl)c3)nn2)c(-c2nn(-c3ccccc3)cc2C=O)c1

MIC (Pseudomonas aeruginosa [1]): 0.05 µg/mL (≈ 0.13 µM) | MIC (Escherichia coli [2]): 0.05 µg/mL (≈ 0.13 µM) | MIC (Staphylococcus aureus [3]): 0.05 µg/mL (≈ 0.13 µM)
SMILES: CC1CCN(c2c(F)c3c(c(=O)c(C(=O)O)cn3C3CC3)c3[nH]nnc23)CC1

MIC [8]: 2 µg/mL (≈ 4.85 µM) | MIC (Bacillus cereus): 2 µg/mL (≈ 4.85 µM) | MIC (Penicillium chrysogenum): 2 µg/mL (≈ 4.85 µM) | MIC (Aspergillus niger): 2 µg/mL (≈ 4.85 µM) | MIC (Curvularia lunata): 2 µg/mL (≈ 4.85 µM) | MIC (Pseudomonas fluorescens): 2 µg/mL (≈ 4.85 µM) | MIC (Escherichia coli [9]): 2 µg/mL (≈ 4.85 µM) | MIC (Micrococcus luteus): 2 µg/mL (≈ 4.85 µM) | MIC (Staphylococcus aureus [10]): 2 µg/mL (≈ 4.85 µM)
SMILES: O=c1cc(OCc2cn(Cc3ccc(Br)cc3)nn2)c2ccccc2o1

MIC [8]: 2 µg/mL (≈ 4.69 µM) | MIC (Bacillus cereus): 2 µg/mL (≈ 4.69 µM) | MIC (Penicillium chrysogenum): 2 µg/mL (≈ 4.69 µM) | MIC (Aspergillus niger): 2 µg/mL (≈ 4.69 µM) | MIC (Curvularia lunata): 2 µg/mL (≈ 4.69 µM) | MIC (Pseudomonas fluorescens): 2 µg/mL (≈ 4.69 µM) | MIC (Escherichia coli [9]): 2 µg/mL (≈ 4.69 µM) | MIC (Micrococcus luteus): 2 µg/mL (≈ 4.69 µM) | MIC (Staphylococcus aureus [10]): 2 µg/mL (≈ 4.69 µM)
SMILES: Cc1cc(OCc2cn(Cc3ccc(Br)cc3)nn2)cc2oc(=O)ccc12

IC50 (Klebsiella pneumoniae [15]): 164 µg/mL (≈ 495 µM) | IC50 (Pseudomonas aeruginosa [16]): 164 µg/mL (≈ 495 µM) | IC50 (Enterococcus faecalis): 164 µg/mL (≈ 495 µM) | IC50 (Salmonella enterica): 164 µg/mL (≈ 495 µM) | IC50 (Escherichia coli [17]): 164 µg/mL (≈ 495 µM)
SMILES: COc1ccc(-n2cc(COc3cccc4cccnc34)nn2)cc1

MIC (Pseudomonas aeruginosa [1]): 0.05 µg/mL (≈ 0.124 µM) | MIC (Escherichia coli [2]): 0.05 µg/mL (≈ 0.124 µM) | MIC (Staphylococcus aureus [3]): 0.05 µg/mL (≈ 0.124 µM)
SMILES: CC1CCN(c2c(Cl)c3c(c(=O)c(C(=O)O)cn3C3CC3)c3[nH]nnc23)CC1

MIC (Streptococcus pneumoniae): 31.2 µg/mL (≈ 59.6 µM) | MIC (Escherichia coli [4]): 31.2 µg/mL (≈ 59.6 µM) | MIC (Pseudomonas aeruginosa [5]): 31.2 µg/mL (≈ 59.6 µM) | MIC (Klebsiella pneumoniae [6]): 31.2 µg/mL (≈ 59.6 µM) | MIC (Staphylococcus aureus [7]): 31.2 µg/mL (≈ 59.6 µM) | MIC (Bacillus subtilis): 31.2 µg/mL (≈ 59.6 µM)
SMILES: CCOCCSc1nnc(-c2nnn(-c3ccccc3Cl)c2-c2nnc(SCCOCC)o2)o1

MIC (Streptococcus pneumoniae): 4 µg/mL (≈ 7.58 µM) | MIC (Escherichia coli [4]): 4 µg/mL (≈ 7.58 µM) | MIC (Pseudomonas aeruginosa [5]): 4 µg/mL (≈ 7.58 µM) | MIC (Klebsiella pneumoniae [6]): 4 µg/mL (≈ 7.58 µM) | MIC (Staphylococcus aureus [7]): 4 µg/mL (≈ 7.58 µM) | MIC (Bacillus subtilis): 4 µg/mL (≈ 7.58 µM)
SMILES: OCC(O)CSc1nnc(-c2nnn(-c3ccccc3Cl)c2-c2nnc(SCC(O)CO)o2)o1 (centres undefined)

MIC (Pseudomonas aeruginosa [11]): 5.5 µg/mL (≈ 11.7 µM) | MIC (Staphylococcus aureus [12]): 5.5 µg/mL (≈ 11.7 µM) | MIC (Escherichia coli [13]): 5.5 µg/mL (≈ 11.7 µM) | MIC (Klebsiella pneumoniae [14]): 5.5 µg/mL (≈ 11.7 µM) | MIC (Streptococcus pyogenes): 5.5 µg/mL (≈ 11.7 µM)
SMILES: O=Cc1cn(-c2ccccc2)nc1-c1ccccc1OCc1cn(Cc2cccc(Cl)c2)nn1

MIC (Pseudomonas aeruginosa [11]): 5.5 µg/mL (≈ 10.7 µM) | MIC (Staphylococcus aureus [12]): 5.5 µg/mL (≈ 10.7 µM) | MIC (Escherichia coli [13]): 5.5 µg/mL (≈ 10.7 µM) | MIC (Klebsiella pneumoniae [14]): 5.5 µg/mL (≈ 10.7 µM) | MIC (Streptococcus pyogenes): 5.5 µg/mL (≈ 10.7 µM)
SMILES: O=Cc1cn(-c2ccccc2)nc1-c1ccccc1OCc1cn(Cc2ccc(Br)cc2)nn1

MIC (Pseudomonas aeruginosa [11]): 5.5 µg/mL (≈ 10.9 µM) | MIC (Staphylococcus aureus [12]): 5.5 µg/mL (≈ 10.9 µM) | MIC (Escherichia coli [13]): 5.5 µg/mL (≈ 10.9 µM) | MIC (Klebsiella pneumoniae [14]): 5.5 µg/mL (≈ 10.9 µM) | MIC (Streptococcus pyogenes): 5.5 µg/mL (≈ 10.9 µM)
SMILES: O=Cc1cn(-c2ccccc2)nc1-c1cc(Cl)ccc1OCc1cn(Cc2cccc(Cl)c2)nn1
